Experimental data from patent publication US12295936B2, “Immunomodulating urea azalides” (Zoetis Services LLC, priority 2020, dated 2025).

Key:
[1] = Lactone A / lactone B equilibration in aqueous solution; format: physicochemical; conditions: pH>6 and temperatures >60° C.
Protocol: The H-11 lactones were separated by HPLC using an Agilent 1100 quaternary pump and diode array detector (250 nm) with an X-select CSH C18 column (150×4.6 mm, 2.5 μm) at 50° C. using a gradient mobile phase (mp) comprising 0.03% H2SO4 in water (mpA) and acetonitrile (mpB) over 16 minutes. Lactone A eluted at 5.8 minutes (area % 92.4) and lactone B eluted at 5.2 minutes (area % 7.6).
In an aqueous solution, Example H-11 exists as an equilibrated mixture of two lactone isomers as shown above. The ratio is approximately 9:1 lactone A:B. The rate of equilibration depends on pH and temperature, with neutral pH giving faster equilibration, pH˜5-6 giving much slower equilibration, and higher temperatures resulting in faster equilibration. Equilibration occurs in under 1-hour at pH>6 and temperatures >60° C. H-11 isomerization is a 6 exo-Trig cyclization and is a favored reaction by Baldwin's Rules. The dominant isomer, lactone-A, is a 15-membered macrocyclic lactone, while the minor isomer, lactone-B, is a 13-membered macrocyclic lactone. […]

[2] = test system: IL-17 / IFN-γ producing CD4+ T helper cells; assay: In vivo genomics challenge model: T helper subtypes and airway IL-17; design: species or system Holstein cattle
[3] = test system: IL-8; assay: IL-8 levels in cattle (natural infection and M. hemolytica challenge studies); format: in vivo; conditions: over the course of a natural infection study; control animals increased 270%
Protocol: Intensive sample collection was conducted over a 96-hour period in a subset of cattle treated with Example H-91 (0.5 mg/kg) or H-11 (0.1 mg/kg) in the natural bovine infection studies. […] The compounds of the invention have shown an up-regulation of IL-36RA, which then binds to IL-36R limiting the pro-inflammatory response of IL-36. In addition, the IL-8 levels from one of the natural infection studies with Example H-91, increased 270% over the course of the study for control animals. In contrast, the IL-8 levels in animals dosed with Example H-91 decreased by about 15%.

[4] = test system: P. multocida; assay: Murine P. multocida intranasal challenge study with lung tissue RNA sequence analysis; format: in vivo, mice
Protocol: In one murine P. multocida intranasal challenge study, mice were administered tulathromycin (16 mg/kg; T02), M9 (32 mg/kg; T03), or ceftiofur (9 mg/kg; T04) by subcutaneous injection 18 hours after bacterial challenge (5×10^3 CFU/mouse) for lung tissue RNA sequence analysis. Survival at Day 7 was about 80%, 50%, and 90% for T02, T03, and T04, respectively, compared to placebo at 0%. Differential gene expression from total lung tissue RNA sequence analysis indicated at least 226 unique genes were up or down regulated (with significance) for T03. Output from ingenuity pathway analysis of these unique genes predicted major upstream regulators of the involved pathways. Data was analyzed based on the number of genes being modulated in the same direction that were associated with a given upstream regulator. An activation z-score of 2 or greater is considered significant and the direction change is indicated by +(activated) or − (inhibited). The top 5 pathways included: IL-9 signaling, glucocorticoid receptor signaling, prolactin signaling, JAK STAT signaling, and IL-17 signaling. The top 6 upstream regulators (activation z-score) included: lipopolysaccharide (−6.725), TNF (−4.669), IFNG (−5.759), IL-1β (−5.947), STAT1 (−2.787), and poly rl:rC-RNA (−5.289). Even though this study was run in the murine model, the top upstream regulators identified as being modulated by M9 include an almost ubiquitous overlap with the pathways identified in the natural disease study as being key mediators in BRD, and therefore is modulating highly relevant pathways in BRD pathobiology.

[5] = M9 32 mg/kg (T03), ingenuity pathway analysis, − = inhibited

CCCNC[C@]1(O)[C@H](C)O[C@@H](O[C@H]2[C@H](C)[C@@H](O[C@@H]3O[C@H](C)C[C@H](N(C)C(=O)N(C)c4ccccc4)[C@H]3O)[C@](C)(O)C[C@@H](C)CN[C@H](C)[C@@H](O)[C@](C)(O)[C@@H](CC)OC(=O)[C@@H]2C)C[C@@]1(C)OC [Example H-11, 1-((2S,3R,4S,6R)-2-(((2R,3S,4R,5R,8R,10R,11R,12S,13S,14R)-2-ethyl-3,4,10-trihydroxy-13-(((2R,4R,5S,6S)-5-hydroxy-4-methoxy-4,6-dimethyl-5-((propylamino)methyl)tetrahydro-2H-pyran-2-yl)oxy)-3,5,8,10,12,14-hexamethyl-15-oxo-1-oxa-6-azacyclopentadecan-11-yl)oxy)-3-hydroxy-6-methyltetrahydro-2H-pyran-4-yl)-1,3-dimethyl-3-phenylurea]
time to equilibration of the lactone isomers [1]: under 1 hour
Th1:Th17 ratio post-treatment ([2]; 0.1 mg/kg (T02), blood at 24 and 48 hours, FIG. 9): increase
IL-17 levels in the airway (BAL fluid, consolidated lung tissue) ([2]; animals challenged with M. haemolytica, FIG. 10): reduction

CCCNC[C@]1(O)[C@H](C)O[C@@H](O[C@H]2[C@H](C)[C@@H](O[C@@H]3O[C@H](C)C[C@H](N(C)C(=O)Nc4ccccc4)[C@H]3O)[C@](C)(O)C[C@@H](C)CN[C@H](C)[C@@H](O)[C@](C)(O)[C@@H](CC)OC(=O)[C@@H]2C)C[C@@]1(C)OC [Example H-91, 1-((2S,3R,4S,6R)-2-(((2R,3S,4R,5R,8R,10R,11R,12S,13S,14R)-2-ethyl-3,4,10-trihydroxy-13-(((2R,4R,5S,6S)-5-hydroxy-4-methoxy-4,6-dimethyl-5-((propylamino)methyl)tetrahydro-2H-pyran-2-yl)oxy)-3,5,8,10,12,14-hexamethyl-15-oxo-1-oxa-6-azacyclopentadecan-11-yl)oxy)-3-hydroxy-6-methyltetrahydro-2H-pyran-4-yl)-1-methyl-3-phenylurea]
decrease of IL-8 levels [3]: about 15%

CCCNC[C@]1(O)[C@H](C)O[C@@H](O[C@H]2[C@H](C)[C@@H](O[C@@H]3O[C@H](C)C[C@H](NC)[C@H]3O)[C@](C)(O)C[C@@H](C)CN[C@H](C)[C@@H](O)[C@](C)(O)[C@@H](CC)OC(=O)[C@@H]2C)C[C@@]1(C)OC [Example M9, (2R,3S,4R,5R,8R,10R,11R,12S,13S,14R)-2-ethyl-3,4,10-trihydroxy-13-(((2R,4R,5S,6S)-5-hydroxy-4-methoxy-4,6-dimethyl-5-((propylamino)methyl)-tetrahydro-2H-pyran-2-yl)oxy)-11-(((2S,3R,4S,6R)-3-hydroxy-6-methyl-4-(methylamino)tetrahydro-2H-pyran-2-yl)oxy)-3,5,8,10,12,14-hexamethyl-1-oxa-6-azacyclopentadecan-15-one, reference compound]
unique genes up or down regulated (with significance), total lung tissue RNA sequence analysis ([4]; M9 32 mg/kg (T03)): at least 226
activation z-score, upstream regulator IFNG [4, 5]: −5.759
activation z-score, upstream regulator IL-1β [4, 5]: −5.947
activation z-score, upstream regulator STAT1 [4, 5]: −2.787
activation z-score, upstream regulator TNF [4, 5]: −4.669
activation z-score, upstream regulator lipopolysaccharide [4, 5]: −6.725
activation z-score, upstream regulator poly rl:rC-RNA [4, 5]: −5.289
Survival at Day 7 ([4]; subcutaneous 18 hours after challenge (5×10^3 CFU/mouse): tulathromycin 16 mg/kg, M9 32 mg/kg, ceftiofur 9 mg/kg, placebo 0%): ~50%
